# From US20210317092A1 (BAYER PHARMA AKTIENGESELLSCHAFT, priority 2016, published 2021)
# Target: T1, human Bradykinin B1 receptor (Homo sapiens, UniProt P46663)
# T1 construct: host or cells: CHO-K1
# T1 sequence (P46663 1-353): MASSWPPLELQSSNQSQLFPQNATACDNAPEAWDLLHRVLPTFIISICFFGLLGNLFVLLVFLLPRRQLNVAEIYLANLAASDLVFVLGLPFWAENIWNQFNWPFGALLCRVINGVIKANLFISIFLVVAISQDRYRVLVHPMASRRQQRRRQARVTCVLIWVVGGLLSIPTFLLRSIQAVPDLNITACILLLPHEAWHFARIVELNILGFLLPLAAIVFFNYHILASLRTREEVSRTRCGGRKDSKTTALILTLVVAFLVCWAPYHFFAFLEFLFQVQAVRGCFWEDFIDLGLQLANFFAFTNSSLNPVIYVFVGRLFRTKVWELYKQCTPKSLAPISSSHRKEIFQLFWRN
# Test: Calcium flux Assay (FLIPR) with recombinant CHO-K1 cells expressing human Bradykinin B1 receptor, in presence (hB1 IC50) or absence (hB1 free IC50) of 0.1% BSA
# Assay type: cell-based
# Conditions: in absence of 0.1% BSA, read-out: hB1 free IC50
row,Molecule,IC50 [µM]
1,"COc1ccc(-c2ccc(NC(=O)C3(c4ccc(C(F)(F)F)cc4F)CC3)cc2-c2nnn[nH]2)cc1C(F)(F)F [Example 131, 1-[2-fluoro-4-(trifluoromethyl)phenyl]-N-[4′-methoxy-2-(1H-tetrazol-5-yl)-3′-(trifluoromethyl)biphenyl-4-yl]cyclopropane carboxamide]",0.053
2,"O=C(Nc1ccc(-n2cc(Cl)cn2)c(-c2nnn[nH]2)c1)C1(c2ccc(C(F)(F)F)cc2F)CC1 [Example 394, N-[4-(4-chloro-1H-pyrazol-1-yl)-3-(1H-tetrazol-5-yl)phenyl]-1-[2-fluoro-4-(trifluoromethyl)phenyl]cyclopro-panecarboxamide]",0.0681
3,"O=C(Nc1ccc(-c2ccc(C(F)(F)F)nc2)c(-c2nnn[nH]2)c1F)C1(c2ccc(OC(F)(F)F)cc2F)CC1 [Example 301, N-{2-fluoro-3-(1H-tetrazol-5-yl)-4-[6-(trifluoromethyl)pyridin-3-yl]phenyl}-1-[2-fluoro-4-(trifluoromethoxy)phenyl]cyclo-propanecarboxa-mide]",0.0361
4,"CC(F)(F)c1ccc(-c2ccc(NC(=O)C3(c4ccc(OC(F)(F)F)cc4)CC3)cc2-c2nnn[nH]2)cn1 [Example 278, N-{4-[6-(1,1-difluroethyl)py-ridin-3-yl]-3-(1H-tetrazol-5-yl)phenyl}-1-[4-(trifluoromethoxy)phenyl]cyclo-propanecarboxa-mide]",0.00362
5,"CCOc1ccc(-c2ccc(NC(=O)C(C)(C)C)cc2-c2nnn[nH]2)cn1 [Example 309, N-[4-(6-ethoxypyridin-3-yl)-3-(1H-tetrazol-5-yl)phenyl]-2,2-dimethylpropan-amide]",0.587
6,"CCc1cnn(-c2ccc(NC(=O)C3(c4ccc(OC(F)(F)F)cc4F)CC3)cc2-c2nnn[nH]2)c1 [Example 377, N-[4-(4-ethyl-1H-pyrazol-1-yl)-3-(1H-tetrazol-5-yl)phenyl]-1-[2-fluoro-4-(trifluoromethoxy)phenyl]cyclo-propanecarboxa-mide]",0.00657
7,"O=C(Nc1ccc(-c2cnc(C(F)(F)F)nc2)c(-c2nnn[nH]2)c1)C1(c2ccc(Cl)c(F)c2)CC1 [Example 251, 1-(4-chloro-3-fluorophenyl)-N-{3-(1H-tetrazol-5-yl)-4-[2-(trifluoromethyl)pyrimidin-5-yl]phenyl} cyclopropane-carboxamide]",0.227
8,"O=C(Nc1ccc(-c2ccnc(C(F)F)c2)c(-c2nnn[nH]2)c1)C1(c2cccc(Cl)c2)CC1 [Example 170, 1-(3-chlorophenyl)-N-{4-[2-(difluoromethyl)pyridin-4-yl]-3-(1H-tetrazol-5-yl)phenyl} cyclopropane-carboxamide]",0.968
9,"O=C(Nc1ccc(-c2cc(F)cc(C(F)(F)F)c2)c(-c2nnn[nH]2)c1)C1(c2ccc(C(F)(F)F)cc2F)CC1 [Example 129, N-[3′-fluoro-2-(1H-tetrazol-5-yl)-5′-(trifluoromethyl)biphenyl-4-yl]-1-[2-fluoro-4-(trifluoromethyl)phenyl] cyclopropane-carboxamide]",0.0772
10,"O=C(Nc1ccc(-c2cnc(C(F)(F)F)nc2)c(-c2nnn[nH]2)c1)C1(c2ccc(Cl)cc2F)CC1 [Example 252, 1-(4-chloro-2-fluorophenyl)-N-{3-{1H-tetrazol-5-yl)-4-[2-(trifluoromethyl)pyrimidin-5-yl]phenyl} cyclopropane-carboxamide]",0.0928
11,"CCC(F)(F)c1ccc(-c2ccc(NC(=O)C3(c4ccc(C)cc4F)CC3)cc2-c2nnn[nH]2)cn1 [Example 285, N-{4-[6-(1,1-difluoropropyl)py-ridin-3-yl]-3-(1H-tetrazol-5-yl)phenyl}-1-(2-fluoro-4-methylphenyl)cy-clopropanecar-boxamide]",0.0158
12,"CCOc1ccc(-c2ccc(NC(=O)C3(c4cccc(Cl)n4)CC3)cc2-c2nnn[nH]2)cn1 [Example 107, 1-(6-chloropyridin-2-yl)-N-[4-(6-ethoxypyridin-3-yl)-3-(1H-tetrazol-5-yl)phenyl] cyclopropane-carboxamide]",0.177
13,"CCOc1ccc(-c2ccc(NC(=O)C3(c4ccc(F)c(OC)c4)CC3)cc2-c2nnn[nH]2)cn1 [Example 87, N-[4-(6-ethoxypyridin-3-yl)-3-(1H-tetrazol-5-yl)phenyl]-1-(4-fluoro-3-methoxyphenyl) cyclopropane-carboxamide]",0.06
14,"Cc1cc(-c2ccc(NC(=O)C3(c4cccc(Cl)c4)CC3)cc2-c2nnn[nH]2)ccn1 [Example 210, 1-(3-chlorophenyl)-N-[4-(2-methylpyridin-4-yl)-3-(1H-tetrazol-5-yl)phenyl] cyclopropane-carboxamide]",0.131
15,"O=C(Nc1ccc(-c2cc3ccccc3s2)c(-c2nnn[nH]2)c1)C1(c2ccc(C(F)(F)F)cc2F)CC1 [Example 384, N-[4-(1-benzothiophen-2-yl)-3-(1H-tetrazol-5-yl)phenyl]-1-[2-fluoro-4-(trifluoromethyl)phenyl]cyclopro-panecarboxamide]",0.0149
16,1-[2-fluoro-4- (trifluoromethyl) phenyl]-N-[4- (4-isopropyl-1H- pyrazol-1-yl)-3- (1H-tetrazol-5- yl)phenyl]cyclopro- panecarboxa- mide [Example 399],0.00516
17,"O=C(Nc1ccc(-n2cc(Cl)cn2)c(-c2nnn[nH]2)c1)C1(c2cccc(Cl)c2)CC1 [Example 391, 1-(3-chlorophenyl)-N-[4-(4-chloro-1H-pyrazol-1-yl)-3-(1H-tetrazol-5-yl)phenyl]cyclopro-panecarboxa-mide]",1.89
18,"COc1cc(-c2ccc(NC(=O)C3(c4cccc(Cl)c4)CC3)cc2-c2nnn[nH]2)cc(C(F)(F)F)c1 [Example 134, 1-(3-chlorophenyl)-N-[3′-methoxy-2-(1H-tetrazol-5-yl)-5′-(trifluoromethyl)biphenyl-4-yl]cyclopropane carboxamide]",0.572
19,"O=C(Nc1cc(Cl)c(-c2ccc(C(F)(F)F)nc2)c(-c2nnn[nH]2)c1)C1(c2ccc(F)c(F)c2)CC1 [Example 303, N-{3-chloro-5-(1H-tetrazol-5-yl)-4-[6-(trifluoromethyl)pyridin-3-yl]phenyl}-1-(3,4-difluorophenyl)cy-clopropanecar-boxamide]",0.052
20,"Cc1ccc(C2(C(=O)Nc3ccc(-n4cc(C(F)(F)F)nc4C)c(-c4nnn[nH]4)c3)CC2)c(F)c1 [Example 369, 1-(2-Fluoro-4-methylphenyl)-N-{4-[2-methyl-4-(trifluoromethyl)-1H-imidazol-1-yl]-3-(1H-tetrazol-5-yl)phenyl}cyclopro-panecarboxa-mide]",1.13
21,"1-(3,4- difluorophenyl)- N-{3-(1H- tetrazol-5-yl)-4- [3-(2,2,2- trifluoroethyl)- 1H-pyrazol-1- yl]phenyl}cyclopro- panecarboxa- mide [Example 387]",0.434

# Same assay, conditions: in presence of 0.1% BSA, read-out: hB1 IC50
row,Molecule,IC50 [µM]
1,"COc1ccc(-c2ccc(NC(=O)C3(c4ccc(OC(F)(F)F)cc4)CC3)cc2-c2nnn[nH]2)cc1OC [Example 19, N-[3′,4′-dimethoxy-2-(1H-tetrazol-5-yl)biphenyl-4-yl]-1-[4-(trifluoromethoxy)phenyl] cyclopropane-carboxamide]",0.0429
2,"COc1cncc(-c2ccc(NC(=O)C3(c4cccc(C)c4)CC3)cc2-c2nnn[nH]2)c1 [Example 151, N-[4(5-methoxypyridin-3-yl)-3-(1H-tetrazol-5-yl)phenyl]-1-(3-methylphenyl) cyclopropane-carboxamide]",0.127
3,"COc1ccc(-c2ccc(NC(=O)C3(c4ccc(F)cc4)CC3)cc2-c2nnn[nH]2)cc1OC [Example 11, N-[3′,4′-dimethoxy-2-(1H-tetrazol-5-yl)biphenyl-4-yl]-1-(4-fluorophenyl) cyclopropane-carboxamide]",0.043
4,"CCOc1ncc(-c2ccc(NC(=O)C3(c4ccc(F)cc4F)CC3)cc2-c2nnn[nH]2)cc1C [Example 162, 1-(2,4-difluorophenyl)-N-[4-(6-ethoxy-5-methylpyridin-3-yl)-3-(1H-tetrazol-5-yl)phenyl] cyclopropane-carboxamide]",0.059
5,"COc1cncc(-c2ccc(NC(=O)C3(c4ccc(F)cc4F)CC3)cc2-c2nnn[nH]2)c1 [Example 150, 1-(2,4-difluorophenyl)-N-[4-(5-methoxypyridin-3-yl)-3-(1H-tetrazol-5-yl)phenyl] cyclopropane-carboxamide]",0.0392
6,"CCOc1ccc(-c2ccc(NC(=O)C3(c4cccc(Cl)n4)CC3)cc2-c2nnn[nH]2)cn1 [Example 107, 1-(6-chloropyridin-2-yl)-N-[4-(6-ethoxypyridin-3-yl)-3-(1H-tetrazol-5-yl)phenyl] cyclopropane-carboxamide]",0.134
7,"CCOc1ccc(-c2ccc(NC(=O)C3(c4ccc(F)c(OC)c4)CC3)cc2-c2nnn[nH]2)cn1 [Example 87, N-[4-(6-ethoxypyridin-3-yl)-3-(1H-tetrazol-5-yl)phenyl]-1-(4-fluoro-3-methoxyphenyl) cyclopropane-carboxamide]",0.088
8,"Cc1cc(-c2ccc(NC(=O)C3(c4cccc(Cl)c4)CC3)cc2-c2nnn[nH]2)ccn1 [Example 210, 1-(3-chlorophenyl)-N-[4-(2-methylpyridin-4-yl)-3-(1H-tetrazol-5-yl)phenyl] cyclopropane-carboxamide]",0.078
9,"COc1ccc(-c2ccc(NC(=O)C3(c4ccc(Cl)cc4)CC3)cc2-c2nnn[nH]2)cc1OC [Example 43, 1-(4-chlorophenyl)-N-[3′,4′-dimethoxy-2-(1H-tetrazol-5-yl)biphenyl-4-yl]cyclopropane carboxamide]",0.014
10,"O=C(Nc1ccc(-c2ccc(N3CCOCC3)cc2)c(-c2nnn[nH]2)c1)C1(c2cccc(Cl)c2)CC1 [Example 322, 1-(3-chlorophenyl)-N-[4′-(morpholin-4-yl)-2-(1H-tetrazol-5-yl)biphenyl-4-yl]cyclopropane carboxamide]",0.238
11,"COc1ccc(-c2ccc(NC(=O)C3(c4ccc(C)cc4)CC3)cc2-c2nnn[nH]2)cc1 [Example 115, N-[4′-methoxy-2-(1H-tetrazol-5-yl)biphenyl-4-yl]-1-(4-methylphenyl) cyclopropane-carboxamide]",0.169
12,"COc1ccc(-c2ccc(NC(=O)C3(c4cccc(Cl)c4)CC3)cc2-c2nnn[nH]2)cn1 [Example 316, 1-(3-chlorophenyl)-N-[4-(6-methoxypyridin-3-yl)-3-(1H-tetrazol-5-yl)phenyl]cyclopro-panecarboxa-mide]",0.328
